# Laboratory results reported in ChEMBL document CHEMBL1201862, “PubChem BioAssay data set” (2004).
#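 Grown in 96-well plates, cells were treated for 48 hours with each compound at five concentrations. Insufficient inhibition: endpoint recorded as highest concentration tested. At the GI50, growth is halved.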 Activity calls are given as the source filed them. No stated cut-off is given here; in the data, active = GI50 up to about 1.1 µM and inactive = higher.
# Columns and labels:
# Experiment in all cases: DTP human tumour cell line panel, 48 h
# [1] = system: HOP-92
# [2] = system: A549
# [3] = system: RXF 393
# [4] = system: SK-MEL-2
# [5] = system: RPMI-8226
# [6] = system: UACC-62
# [7] = system: 786-0
# [8] = system: SF-295
# [9] = system: SNB-19
# [10] = system: MCF7
# [11] = system: IGROV-1
# [12] = system: Hs-578T
# [13] = system: UACC-257
# [14] = system: NCI-H226
# [15] = system: MDA-N
# [16] = system: CCRF-CEM
# [17] = system: KM12
# [18] = system: U-251
# [19] = system: SW-620
# [20] = system: OVCAR-4
# [21] = system: MDA-MB-231
# [22] = system: MDA-MB-435
# [23] = system: DU-145
# [24] = system: NCI-H23
# [25] = system: HCT-116
# [26] = system: HOP-62
# [27] = system: HT-29
# [28] = system: SF-539
# [29] = system: SK-MEL-5
# [30] = system: HCC 2998
# [31] = system: COLO 205
# [32] = system: OVCAR-8
# [33] = system: ACHN
# [34] = system: OVCAR-5
# [35] = system: SK-OV-3
# [36] = system: HL-60
# [37] = system: K562
# [38] = system: UO-31
# [39] = system: SF-268
# [40] = system: SNB-75
# [41] = system: OVCAR-3
# [42] = system: PC-3
# [43] = system: BT-549
# [44] = system: EKVX
# [45] = system: MOLT-4
# [46] = system: LOX IMVI
# [47] = system: NCI/ADR-RES
# [48] = system: M14
# [49] = system: SN12C
# [50] = system: A498
# [51] = system: SK-MEL-28
# [52] = system: T47D
# [53] = system: Malme-3M
# [54] = system: TK-10
# [55] = system: NCI-H522
# [56] = system: NCI-H460
# [57] = system: CAKI-1
# [58] = system: HCT-15
compound,measurement,setting,value
CC(=O)C1=C(C)N2C(=NC3=C(CCc4ccccc43)C2c2ccc(F)cc2)S1 (stereo not drawn),GI50,[1],63.1 µM (inactive)
same,GI50,[2],> 100 µM (inactive)
same,GI50,[3],52.6 µM (inactive)
same,GI50,[4],> 100 µM (inactive)
same,GI50,[5],17.5 µM (inactive)
same,GI50,[6],78.2 µM (inactive)
same,GI50,[7],> 100 µM (inactive)
same,GI50,[8],> 100 µM (inactive)
same,GI50,[9],> 100 µM (inactive)
same,GI50,[10],60.5 µM (inactive)
same,GI50,[11],27.7 µM (inactive)
same,GI50,[12],42.8 µM (inactive)
same,GI50,[13],79.4 µM (inactive)
same,GI50,[14],> 100 µM (inactive)
same,GI50,[15],55.6 µM (inactive)
same,GI50,[16],40.3 µM (inactive)
same,GI50,[17],> 100 µM (inactive)
same,GI50,[18],84.7 µM (inactive)
same,GI50,[19],> 100 µM (inactive)
same,GI50,[20],56.1 µM (inactive)
same,GI50,[21],22.3 µM (inactive)
same,GI50,[22],> 100 µM (inactive)
same,GI50,[23],> 100 µM (inactive)
same,GI50,[24],> 100 µM (inactive)
same,GI50,[25],> 100 µM (inactive)
same,GI50,[26],84.1 µM (inactive)
same,GI50,[27],84.1 µM (inactive)
same,GI50,[28],80.5 µM (inactive)
same,GI50,[29],30.1 µM (inactive)
same,GI50,[30],83.9 µM (inactive)
same,GI50,[31],58.1 µM (inactive)
same,GI50,[32],62.5 µM (inactive)
same,GI50,[33],77.6 µM (inactive)
same,GI50,[34],> 100 µM (inactive)
same,GI50,[35],> 100 µM (inactive)
same,GI50,[36],28.4 µM (inactive)
same,GI50,[37],31.3 µM (inactive)
same,GI50,[38],52.7 µM (inactive)
same,GI50,[39],61 µM (inactive)
same,GI50,[40],25.6 µM (inactive)
same,GI50,[41],67.9 µM (inactive)
same,GI50,[42],89.7 µM (inactive)
same,GI50,[43],93.5 µM (inactive)
same,GI50,[44],24 µM (inactive)
same,GI50,[45],2.59 µM (inactive)
same,GI50,[46],44.2 µM (inactive)
same,GI50,[47],37.3 µM (inactive)
same,GI50,[48],> 100 µM (inactive)
same,GI50,[49],51.3 µM (inactive)
same,GI50,[50],45.7 µM (inactive)
same,GI50,[51],> 100 µM (inactive)
same,GI50,[52],63.5 µM (inactive)
O=C1NC(=O)C2(CCCCCC2)N1,GI50,[1],> 100 µM (inactive)
same,GI50,[2],> 100 µM (inactive)
same,GI50,[3],> 100 µM (inactive)
same,GI50,[4],> 100 µM (inactive)
same,GI50,[5],> 100 µM (inactive)
same,GI50,[6],> 100 µM (inactive)
same,GI50,[53],> 100 µM (inactive)
same,GI50,[7],> 100 µM (inactive)
same,GI50,[8],> 100 µM (inactive)
same,GI50,[9],> 100 µM (inactive)
same,GI50,[10],> 100 µM (inactive)
same,GI50,[11],> 100 µM (inactive)
same,GI50,[54],> 100 µM (inactive)
same,GI50,[12],> 100 µM (inactive)
same,GI50,[13],> 100 µM (inactive)
same,GI50,[55],> 100 µM (inactive)
same,GI50,[14],> 100 µM (inactive)
same,GI50,[15],> 100 µM (inactive)
same,GI50,[16],> 100 µM (inactive)
same,GI50,[56],> 100 µM (inactive)
same,GI50,[17],> 100 µM (inactive)
same,GI50,[18],> 100 µM (inactive)
same,GI50,[19],> 100 µM (inactive)
same,GI50,[20],> 100 µM (inactive)
same,GI50,[21],> 100 µM (inactive)
same,GI50,[22],> 100 µM (inactive)
same,GI50,[23],> 100 µM (inactive)
same,GI50,[24],> 100 µM (inactive)
same,GI50,[25],> 100 µM (inactive)
same,GI50,[26],> 100 µM (inactive)
same,GI50,[27],> 100 µM (inactive)
same,GI50,[28],> 100 µM (inactive)
same,GI50,[29],> 100 µM (inactive)
same,GI50,[31],> 100 µM (inactive)
same,GI50,[32],> 100 µM (inactive)
same,GI50,[33],> 100 µM (inactive)
same,GI50,[34],> 100 µM (inactive)
same,GI50,[57],> 100 µM (inactive)
same,GI50,[58],> 100 µM
same,GI50,[35],> 100 µM (inactive)
same,GI50,[37],> 100 µM (inactive)
same,GI50,[38],> 100 µM (inactive)
same,GI50,[39],> 100 µM (inactive)
same,GI50,[40],> 100 µM (inactive)
same,GI50,[41],> 100 µM (inactive)
same,GI50,[42],> 100 µM (inactive)
same,GI50,[43],> 100 µM (inactive)
same,GI50,[44],> 100 µM (inactive)
same,GI50,[45],> 100 µM (inactive)
same,GI50,[46],> 100 µM (inactive)
same,GI50,[47],> 100 µM (inactive)
same,GI50,[48],> 100 µM (inactive)
same,GI50,[49],> 100 µM (inactive)
same,GI50,[50],> 100 µM (inactive)
same,GI50,[51],> 100 µM (inactive)
same,GI50,[52],> 100 µM (inactive)
